Test results reported in paper PMC6225228, “Design, Synthesis and Evaluation of N-pyrazinylbenzamides as Potential Antimycobacterial Agents” (Molecules : A Journal of Synthetic Chemistry and Natural …, 2018).
Converted amounts (≈) assume the structure as drawn. Where two headings read alike, the source gives them in different places.

How the values were obtained:
[1] = test system: M. kansasii CNCTC My 235/80 (ATCC 12478); assay: Antimycobacterial microdilution MABA, M. kansasii; format: cell-based, Mycobacterium kansasii; settings: Mycobacterium kansasii, ATCC12478, pH 6.6, read-out: M. kans. ATCC 12478 MIC, Middlebrook 7H9 with OADC, pH 6.6, MABA
[2] = test system: Trichophyton interdigitale 445; assay: Antifungal microdilution broth, TI; format: cell-based; settings: read-out: MIC TI
[3] = test system: Enterococcus sp. J 14365/08; assay: Antibacterial microdilution broth, EF; format: cell-based; settings: Enterococcus, read-out: MIC EF
[4] = test system: Escherichia coli CCM 4517; assay: Antibacterial microdilution broth, EC; format: cell-based; settings: Escherichia coli, read-out: MIC EC
[5] = test system: Mycobacterium tuberculosis H37Rv CNCTC My 331/88 (ATCC 27294); assay: Antimycobacterial microdilution MABA, M. tuberculosis; format: cell-based; settings: for MIC: Mycobacterium tuberculosis; for Mtb H37Rv ATCC 27294 MIC: Middlebrook 7H9 with OADC growth supplement, pH = 6.6, MABA
[6] = test system: Pseudomonas aeruginosa CCM 1961; assay: Antibacterial microdilution broth, PA; format: cell-based; settings: Pseudomonas aeruginosa, read-out: MIC PA
[7] = test system: Staphylococcus epidermidis H 6966/08; assay: Antibacterial microdilution broth, SE; format: cell-based; settings: read-out: MIC SE
[8] = test system: Candida albicans ATCC 44859; assay: Antifungal microdilution broth, CA; format: cell-based; settings: Candida albicans, read-out: MIC CA
[9] = test system: M. avium ssp. avium CNCTC My 80/72 (ATCC 15769); assay: Antimycobacterial microdilution MABA, M. avium; format: cell-based, Mycobacterium avium; settings: Mycobacterium avium, ATCC15769, pH 6.6, read-out: M. avium ATCC 15769 MIC
[10] = test system: Trichosporon asahii 1188; assay: Antifungal microdilution broth, TA; format: cell-based; settings: read-out: MIC TA
[11] = test system: Staphylococcus aureus CCM 4516/08; assay: Antibacterial microdilution broth, SA; format: cell-based; settings: Staphylococcus aureus
[12] = test system: Staphylococcus aureus H 5996/08 methicillin resistant; assay: microbe, parasite or virus in culture; format: cell-based; settings: for MIC: Staphylococcus aureus, MRSA, read-out: MIC MRSA
[13] = test system: eight fungal strains of clinical importance; assay: Antifungal microdilution, all tested fungal strains; format: cell-based; settings: Trichophyton interdigitale, read-out: MIC, all tested fungal strains
[14] = test system: Candida krusei E28; assay: Antifungal microdilution broth, CK; format: cell-based; settings: Pichia kudriavzevii, read-out: MIC CK
[15] = test system: Candida tropicalis 156; assay: Antifungal microdilution broth, CT; format: cell-based; settings: read-out: MIC CT
[16] = test system: Aspergillus fumigatus 231; assay: Antifungal microdilution broth, AF; format: cell-based; settings: read-out: MIC AF
[17] = test system: Lichtheimia corymbifera 272; assay: Antifungal microdilution broth, LC; format: cell-based; settings: read-out: MIC LC
[18] = human, HepG2 cells
[19] = test system: Candida glabrata 20/I; assay: Antifungal microdilution broth, CG; format: cell-based; settings: Nakaseomyces glabratus, 20/I, read-out: MIC CG
[20] = test system: Mycobacterium smegmatis CCM 4622 (ATCC 607); assay: Antimycobacterial microdilution, M. smegmatis; format: cell-based; settings: Mycolicibacterium smegmatis, read-out: M. smeg. ATCC 607 MIC
[21] = Trichophyton interdigitale, 445, 72 h
[22] = Trichophyton interdigitale, 445, 120 h
[23] = read-out: Mtb H37Rv ATCC 27294 MIC, Middlebrook 7H9 with OADC growth supplement, pH = 6.6, MABA
[24] = Staphylococcus epidermidis, H6966/08, 24 h
[25] = Staphylococcus epidermidis, H6966/08, 48 h
[26] = Trichosporon asahii, 1188, 24 h
[27] = Trichosporon asahii, 1188, 48 h
[28] = CCM4516, 24 h, read-out: MIC SA, 24 h
[29] = CCM4516, 48 h, read-out: MIC SA, 48 h
[30] = Aspergillus fumigatus, 231, 24 h
[31] = Aspergillus fumigatus, 231, 48 h
[32] = Lichtheimia corymbifera, 272, 24 h
[33] = Lichtheimia corymbifera, 272, 48 h

Compound	MIC [1] [µg/mL]	MIC [2, 21] [µM]	MIC [2, 22] [µM]	MIC ([3]; SP.J14365/08, 24 h) [µM]	MIC ([3]; SP.J14365/08, 48 h) [µM]	MIC ([4]; CCM4517, 24 h) [µM]	MIC ([4]; CCM4517, 48 h) [µM]	MIC [5, 23] [µg/mL]	MIC ([6]; CCM1961, 72 h) [µM]	MIC ([6]; CCM1961, 120 h) [µM]	MIC [7, 24] [µM]	MIC [7, 25] [µM]	MIC ([8]; ATCC44859, 24 h) [µM]	MIC ([8]; ATCC44859, 48 h) [µM]	MIC [9] [µg/mL]	MIC [10, 26] [µM]	MIC [10, 27] [µM]	MIC [11, 28] [µM]	MIC [11, 29] [µM]	MIC ([12]; 24 h) [µM]	further results
CC(=O)Oc1ccccc1C(=O)Nc1cnc(Cl)cn1 [Compound 2b-Ac]	12.5 (≈ 42.9 µM)	250 (≈ 72.9 µg/mL)	250 (≈ 72.9 µg/mL)	250 (≈ 72.9 µg/mL)	> 250	> 250	> 250	12.5	> 250	> 250	125 (≈ 36.5 µg/mL)	250 (≈ 72.9 µg/mL)	125 (≈ 36.5 µg/mL)	125 (≈ 36.5 µg/mL)	50 (≈ 171 µM)	125 (≈ 36.5 µg/mL)	125 (≈ 36.5 µg/mL)	62.5 (≈ 18.2 µg/mL)	125 (≈ 36.5 µg/mL)	125 (≈ 36.5 µg/mL)	MIC ([5]; read-out: Mtb MIC, molar concentration): 42.9 µM; MIC ([12]; 48 h): 250 µM (≈ 72.9 µg/mL); MIC [13]: 125 to 250 µM (≈ 36.5 to 72.9 µg/mL); MIC ([14]; E28, 24 h): 125 µM (≈ 36.5 µg/mL); MIC ([14]; E28, 48 h): 125 µM (≈ 36.5 µg/mL); MIC ([15]; Candida tropicalis, 156, 24 h): 250 µM (≈ 72.9 µg/mL); MIC ([15]; Candida tropicalis, 156, 48 h): 250 µM (≈ 72.9 µg/mL); MIC [16, 30]: 250 µM (≈ 72.9 µg/mL); MIC [16, 31]: 250 µM (≈ 72.9 µg/mL); MIC [17, 32]: 125 µM (≈ 36.5 µg/mL); MIC [17, 33]: 125 µM (≈ 36.5 µg/mL); IC50 at 24 h [18]: 95.4 µM; MIC ([19]; 24 h): 250 µM (≈ 72.9 µg/mL); MIC ([19]; 48 h): 250 µM (≈ 72.9 µg/mL); MIC [20]: 31.2 µg/mL (≈ 107 µM)
O=C(Nc1cnc(Cl)cn1)c1cccc(O)c1 [Compound 2c]	> 100	> 500	> 500	> 500	> 500	> 500	> 500	> 100	> 500	> 500	> 500	> 500	500 (≈ 125 µg/mL)	> 500	> 100	> 500	> 500	500 (≈ 125 µg/mL)	500 (≈ 125 µg/mL)	> 500	Mtb H37Rv ATCC 27294 MIC [5]: >100 µg/mL; MIC ([7]; 24 h): >500 µM; MIC ([7]; 48 h): >500 µM; MIC MRSA ([12]; 24 h): >500 µM; MIC MRSA ([12]; 48 h): >500 µM; MIC ([12]; 48 h): > 500 µM; MIC [13]: ≥ 500 µM; MIC ([14]; E28, 24 h): > 500 µM; MIC ([14]; E28, 48 h): > 500 µM; MIC ([15]; Candida tropicalis, 156, 24 h): > 500 µM; MIC ([15]; Candida tropicalis, 156, 48 h): > 500 µM; MIC [16, 30]: > 500 µM; MIC [16, 31]: > 500 µM; MIC [17, 32]: > 500 µM; MIC [17, 33]: > 500 µM; MIC ([19]; 24 h): > 500 µM; MIC ([19]; 48 h): > 500 µM; melting point: 190.1 to 190.8 °C; MIC [20]: ≥ 500 µg/mL
O=C(Nc1cnc(Cl)cn1)c1ccc(O)cc1 [Compound 2d]	> 100	> 500	> 500	> 500	> 500	> 500	> 500	> 100	> 500	> 500	500 (≈ 125 µg/mL)	500 (≈ 125 µg/mL)	500 (≈ 125 µg/mL)	> 500	> 100	> 500	> 500	31.2 (≈ 7.8 µg/mL)	31.2 (≈ 7.8 µg/mL)	> 500	Mtb H37Rv ATCC 27294 MIC [5]: >100 µg/mL; MIC MRSA ([12]; 24 h): >500 µM; MIC MRSA ([12]; 48 h): >500 µM; MIC ([12]; 48 h): > 500 µM; MIC [13]: ≥ 500 µM; MIC ([14]; E28, 24 h): > 500 µM; MIC ([14]; E28, 48 h): > 500 µM; MIC ([15]; Candida tropicalis, 156, 24 h): > 500 µM; MIC ([15]; Candida tropicalis, 156, 48 h): > 500 µM; MIC [16, 30]: > 500 µM; MIC [16, 31]: > 500 µM; MIC [17, 32]: > 500 µM; MIC [17, 33]: > 500 µM; MIC ([19]; 24 h): > 500 µM; MIC ([19]; 48 h): > 500 µM; melting point: 210.9 to 212.6 °C; MIC [20]: ≥ 500 µg/mL
